Measured values: patent publication US20220259172A1, “CHEMICAL INHIBITORS OF ID PROTEINS FOR THE TREATMENT OF CANCER AND OTHER DISEASES” (Universität Heidelberg, priority 2019, published 2022)
Entries after “also recorded” stand apart in the source; their conditions may differ.

Tests used:
[1] = system: Id1; assay: Compound screen: BMP4-induced Id1 expression, Western blot; assay type: cell-based, murine; conditions: B16-F10 and Ret cells, BMP4 10 ng/ml and compound simultaneously, 24 h, rated relative to CBD
Protocol: (§1) To screen compounds with an inhibitory effect on Id1 and Id3 expression, cells were simultaneously stimulated with BMP4 (10 ng/ml, 315-27, Peprotech) and substances at the indicated concentrations for 24 h. DMSO served as a solvent control. Effects on Id1 and Id3 expression levels were analysed by Western blotting.
(§2) Western blot analysis was performed using standard methods. The following antibodies were used for protein detection: Id1 (195-14, CalBioreagents), Id3 (17-3, CalBioreagents), β-actin (AC-15, Sigma Aldrich), Vinculin (VIN-11-5, Sigma Aldrich). Protein bands were detected using HRP conjugated secondary antibodies (P0447, P0448, Agilent Technologies) and enhanced chemiluminescence (32106, Thermo Fisher Scientific).
(§3) B16-F10 and Ret melanoma cells were treated with BMP4 to induce Id1 and Id3 expression, and simultaneously treated with each of the compounds individually for a 24 h period.

[2] = system: Id3; assay: Compound screen: BMP4-induced Id3 expression, Western blot; assay type: cell-based, murine; conditions: B16-F10 and Ret cells, BMP4 10 ng/ml and compound simultaneously, 24 h, rated relative to CBD
Protocol: as §1, §2, §3

[3] = system: Ret melanoma cells; assay: Tumor growth and initiation in vivo, Ret; parameters: species or system mice
Text: B16-F10 (A) or Ret (B) cells were co-injected with Matrigel into syngeneic mice. […] Numbers indicate the number of animals with a tumor in each group. Bar graphs show the mean tumor volume in each group at the day when the first animal had reached the legal tumor size limit. Kaplan-Meier curves show the percentage of tumor-free animals in percent as a measure for tumor initiation.
Cells were harvested using trypsin/EDTA and washed in PBS. The indicated numbers of living melanoma cells were subcutaneously injected into the flank of syngeneic mice in 100 μl PBS. For co-injection experiments, the indicated number of living cells was resuspended in 100 μl Matrigel HC (10 mg/ml, #354262, Corning Inc.), and subcutaneously injected into the flank. Tumor volume was calculated using the formula 4/3π (d1/2×d2/2×d3/2), where d1−d3 represents the diameter of the tumor in three dimensions. […] All animal experiments were approved by the local authorities, and performed according to the German legal requirements. Tumor initiating cell (TIC) frequency and p-values were calculated using ELDA software.
To investigate the anti-tumor properties of the selected Id1/Id3-inhibiting compounds, groups of experimental mice (8 per group) were injected subcutaneously with B16-F10 or Ret melanoma cells. […] Melanoma initiation and growth was assessed over a period of 90 days.

[4] = system: B16-F10 and Ret cells; assay: Proliferation of melanoma cells in 2D culture; assay type: cell-based, murine
[5] = system: mouse embryonic fibroblasts (MEFs); assay: Proliferation/cytotoxicity in mouse embryonic fibroblasts, 2D culture; assay type: cell-based
[6] = system: Id1; assay: Id1 expression in HUVECs, Western blot; assay type: cell-based, Human
Protocol: (§4) Human umbilical vein endothelial cells (HUVECs) and lymphatic endothelial cells (LECs) were cultivated in EBM™-2 Endothelial Cell Growth Basal Medium supplemented with EGM™-2 MV Microvascular Endothelial Cell Growth Medium-2 SingleQuots™ Kit (both Lonza, catalogue numbers CC-3156 and CC4176, respectively), hereafter referred to as endothelial cell growth medium. HUVECs and LECs were cultivated in the presence of the indicated concentrations of X6632, or with DMSO as a solvent control. After 24 hours, cells were harvested. Lysates were western blotted and probed with antibodies against Id1 and Id3. Western blots probed with vinculin antibodies served as loading controls.
as §2
(§5) The effect of X6632 on Id1 and Id3 expression in cultivated proliferating human umbilical vein endothelial cells (HUVECs) was investigated. […] LDN-193189, an antagonist of BMP receptor isotypes ALK2 and ALK3, served as a positive control reference for inhibition of Id1 and Id3 expression.

[7] = system: Id3; assay: Id3 expression in HUVECs, Western blot; assay type: cell-based, Human
Protocol: as §4, §2, §5

[8] = system: Id1; assay: Id1 expression in LECs, Western blot; assay type: cell-based; conditions: indicated concentrations, 24 hours (FIG. 10B)
Protocol: as §4, §2, §5

[9] = system: Id3; assay: Id3 expression in LECs, Western blot; assay type: cell-based; conditions: indicated concentrations, 24 hours (FIG. 10B)
Protocol: as §4, §2, §5

[10] = system: HUVECs; assay: HUVEC proliferation, CyQUANT assay; assay type: cell-based, Human; conditions: dose-dependent manner (FIG. 11)
Protocol: (§6) HUVECs (A) and LECs (B) were cultivated in endothelial cell growth medium. Cells were incubated with the indicated concentrations of X6632. Incubation with DMSO served as a solvent control. After cultivation for the indicated time periods, cells were stained with a CyQUANT™ Cell Proliferation Assay Kit (Thermo Fisher Scientific). The CyQUANT™ dye emits fluorescence after excitation at 485 nm when incorporated in double-stranded DNA, allowing DNA content to be used as a measure of cell numbers. Plates were incubated for 15 min at 37° C. to allow the CyQUANT™ dye to incorporate into DNA. Fluorescence was measured by excitation at 485 nm and detection of emission at 530 nm at 25 positions in each well (signal intensity) using a Tecan Infinite M200 reader.

[11] = system: LECs; assay: LEC proliferation, CyQUANT assay; assay type: cell-based; conditions: dose-dependent manner (FIG. 11)
Protocol: as §6

[12] = system: HUVEC spheroids; assay: Sprouting from HUVEC spheroids in collagen; assay type: cell-based, Human; conditions: X6632 10 μM; 50 ng/ml hVEGF-A; 24 h; collagen type I
Protocol: (§7) HUVECs or LECs were resuspended in endothelial cell growth medium containing 20% methylcellulose at 1.6×10^4 cells per millilitre. Twenty-five microliters of cell suspension were pipetted as drops on non-adherent plastic plates, which were then inverted to form hanging drop cultures. Plates were incubated for 24 h at 37° C. Spheroids were harvested, then embedded in collagen type I (2 mg/ml) containing 0.5% methylcellulose. After polymerization, gels were cultivated with endothelial cell growth medium containing 50 ng/ml hVEGF-A in the presence or absence of X6632 (10 μM), or DMSO as a solvent control. Sprouting was assessed after cultivation for 24 h using microscope-based image acquisition. Representative images are shown.
(§8) To determine whether this is the case, the impact of […] on angiogenic and lymphangiogenic sprouting from endothelial cell spheriods was investigated. To this end, HUVECs and LECs were grown as spheriods in hanging drop cultures. The spheroids were then embedded in collagen. Sprouting from the spheroids in the presence and absence of X6632 was monitored using microscope-based image analysis.

[13] = system: LEC spheroids; assay: Sprouting from LEC spheroids in collagen; assay type: cell-based; conditions: X6632 10 μM; 50 ng/ml hVEGF-A; 24 h; collagen type I
Protocol: as §7, §8

[14] = HUVECs, indicated concentrations, 24 hours (FIG. 10B)
[15] = proliferating HUVECs, 24 hours (FIG. 10A)

CCCCc1cc2c(O)cc(C3(CCCC)CCCCC3)cc2oc1=O [X6632, 7-(1-Butylcyclohexyl)-5-hydroxy-3-butyl-2H-chromen-2-one]
Inhibitory effect on Id1 protein expression [1]: more potent | Inhibitory effect on Id1 protein expression ([1]; listed as X 6632): strongest inhibitory activities | Inhibitory effect on Id3 protein expression [2]: more potent | Inhibitory effect on Id3 protein expression ([2]; listed as X 6632): strongest inhibitory activities | Melanoma growth and initiation ([3]; Ret cells co-injected with Matrigel, syngeneic mice, daily i.p. first 14 days, compared to DMSO): significantly inhibit; also recorded: potent inhibitors | Number of mice that did not develop any tumors ([3]; Ret cells, 8 mice per group, assessed over 90 days): 1 mice | Tumor growth and initiation compared to CBD ([3]; Ret experiment, daily i.p. first 14 days): trend towards reduced tumor initiation and growth | Proliferation / cytotoxicity, melanoma cells [4]: strongly inhibited | Proliferation / cytotoxicity, non-transformed MEFs [5]: strongly inhibited | Expression of Id1 protein [6, 14]: inhibits | Id1 protein expression [6, 15]: completely abrogated | Expression of Id3 protein [7, 14]: inhibits | Id3 protein expression [7, 15]: completely abrogated | Expression of Id1 protein [8]: inhibits | Expression of Id3 protein [9]: inhibits | Proliferation of HUVECs [10]: inhibited | Proliferation of LECs [11]: inhibited | Sprouting from HUVEC spheroids [12]: substantially inhibited | Sprouting from LEC spheroids [13]: substantially inhibited
